Measurements published in patent US20250122193A1, “NOVEL PYRIDOCARBAZOLIUM COMPOUNDS AND MEDICAL USES THEREOF” (MyCural Therapeutics, priority 2021, published 2025).

Key:
[1] = molecular target: T1, homodimerization of the bZip protein GCN4 (Saccharomyces cerevisiae, UniProt P03069); assay: split Gaussia luciferase (GLuc) assay, GCN4:GCN4; format: cell-based; settings: 6.5 μM
T1 construct: replacing the existing Zip-gene (GCN4); expressed in transfected cells; host or cells: HeLa
Description: FIG. 1: MYCMI-7 (Compound Example 1) inhibits the MYC:MAX interaction in cells, bind MYC in vitro, and blocks MYC function. A) Molecular structure of MYCMI-7. B-E) split Gaussia luciferase (GLuc) assay. MYC or MYCN and MAX Gluc constructs were co-transfected into HeLa cells together with a firefly luciferase vector. 24 hours post transfection cells were treated with compounds, and after another 17-24 hours cells were harvested and both GLuc and firefly luciferase activities were measured. The mean of three different experiments is shown. […] G) Quantification of isPLA dots. […] J) MYC target gene ODC1 expression after treatment with 5 μM MYCMI-7, quantified by qPCR. […] L) Recombinant MYC bHLHZip protein domain immobilized onto a CM5 chip was subjected to various concentrations of MYCMI-7 and the complex of MYCbHLHZip-MYCMI-7 was measured as response units by SPR. […]
0.2-0.4 μg of each GLuc-construct together with 0.05 μg pCMV-LUC (firefly luciferase) were used per transfection in 12 well plates. […] After 60 min incubation at room temperature 20 μM D-luciferin was added (substrate of Firefly luciferase) and luminescence was measured in a Lumat LB9501 (Berthold) or OmegaFluostar (BMG Labtech) luminometer. Directly after, Gaussia luciferase substrate Coelenterazine (Promega) was added to a final concentration of 20 μM in a mixture with “Stop n' Glow” (Promega) and the luciferase activity was measured. […]

FRA1:JUN interaction = molecular target: T2, FRA1:JUN interaction (Homo sapiens, UniProt P05412+P15407); assay: in situ proximity ligation assay (isPLA), FRA1:JUN; format: cell-based; settings: 5 μM, 24 hours, MCF-7 cells
T2 construct: endogenous in cells; host or cells: MCF7

MYCN = molecular target: T3, MYCN (Homo sapiens, UniProt P04198); assay: MYCN expression in Kelly neuroblastoma cells; format: cell-based
T3 construct: endogenous in cells; host or cells: Kelly neuroblastoma cells
Description: (§1) For western blot equal amounts of proteins ([…]) were separated on a 4-12% SDS-PAGE gel. Proteins were transferred to Immobilion-P membrane (Millipore) and detected by immunostaining and chemoluminescence (Immobilion western HRP substrate; Millipore). For immunoprecipitations 500-1000 μg of protein was used. […] Briefly, cells were crosslinked with 1% formaldehyde on ice for 6 minutes. Nuclear chromatin was sonicated on ice to fragments from 0.3 kb to 0.5 kb. Nuclear chromatin equivalent to 2.5×10^7 cells was immunoprecipitated with 2 μg antibody.

MYC mRNA = MYC mRNA expression by RT-qPCR; format: cell-based
Description: (§2) A) Measurement of MYC mRNA expression by RTqPCR after treatment with MYCMI-7 and different topoisomerase inhibitors at indicated concentrations. […] D) Western blot analysis of p53 and p21 expression after exposure to 5 μM MYCMI-7, ellipticine or camptothecin (CPT) in HCT116 cells. E) Western blot analysis of phospho-ATM, total ATM and p53 expression after exposure to indicated concentrations of MYCMI-7 and ellipticine in A375 cells after 3 hrs treatment.

phosphorylation of ATM = assay: phospho-ATM and p53 by western blot, A375; format: cell-based; settings: 5 μM, A375 cells, 3 hrs
Description: as §2, §1

[2] = tested on: MDA-MB-231 xenograft tumors; assay: MDA-MB-231 xenograft
Description: (§3) A) Tumor growth of MDA-MB-231 xenografts in mice injected with 6.25 mg/kg MYCMI-7 or vehicle intratumorally twice a week until sacrificed. Tumor growth was monitored by measuring tumor size (mm^3) every 4th day. B) Survival curve of the mice in A) sacrificed when the tumors reached a volume of 1000 mm^3. C) Immunohistochemistry staining for MYC and apoptosis marker caspase 3 in MDA-MB-231 tumor tissue from vehicle- and MYCMI-7 treated animals at end point, D) Immunofluorescence staining of proliferation and apoptosis markers Ki67 and TUNEL, respectively, in MDA-MB-231 xenograft tumor tissue from vehicle- and MYCMI-7 treated animals at end point. E) MYCN-amplified SK-N-DZ neuroblastoma xenograft mice injected with 6.25 mg/kg MYCMI-7 or vehicle intratumorally twice a week until sacrificed. Tumor growth was monitored by measuring tumor volume (ml) daily. F) Survival curve of mice in E) sacrificed at a tumor volume of 1500 mm^3. G-H) H&E (G) and MYCN IHC (H) stainings of SK-N-DZ xenograft tumor tissue from vehicle- and MYCMI-7 treated animals at end point. A-H) At the end points, the last injection was done 3 hrs before sacrifice. Images were taken at 10× or 40× magnification.
(§4) For the xenograft transplantation mouse tumor models of breast cancer and neuroblastoma, 6-8 weeks old NOD/SCID mice (Taconic) or NMRI nu/nu (Scanbur) were injected s.c. with 5×10^6 MDA-MB-231 breast cancer cells or MYCN-amplified SK-N-DZ neuroblastoma cells. When tumors reached a size of 100-200 mm^3, mice started receiving treatment (6.25 mg/kg MYCMI-7) administered intratumorally (50 ml) twice per week. The last dose was administered 3 hrs before termination. Mice were sacrificed when the tumors had reached as size of 1000 mm^3 (MDA-MB-231) or 1500 mm^3 (SK-N-DZ). Tumors were collected and frozen in OCT (Cryomount, Histolab) or fixed in buffered 4% formaldehyde solution (Histolab) and paraffin-embedded.
(§5) Immunohistochemistry andimmunofluorescence: Apoptosis was visualized at the single-cell level on tumor cryosections using the TUNEL method using the In Situ Cell Death Detection Fluorescein-Roche kit and analyzed by fluorescence microscopy. Briefly, tumor cryosections were fixed in 4% paraformaldyde (PFA) and the assay was performed following the instructions from the manufacturer. Negative controls were run using the reagent without the TdT enzyme. Samples were mounted using Vectashield mounting medium (Vector) and DAPI was used as nuclear counterstaining. […] Visualization and image acquisition was done in a Zeiss microscope, and for panoramic views by a Vectra imaging system. For quantification, areas with positive TUNEL and Ki67 staining were measured using Image J software.

pharmacokinetics in mice = settings: 6.25 mg/kg i.p.
Description: Blood and brains were collected from three to four mice per group at 0, 1, 2, 4 and 24 hours following injection of 6.25 mg/kg ToM. Plasma samples were extracted using protein precipitation. Brain samples were extracted by homogenization in acetonitrile:DMSO, 95:5 using a gentleMACS Dissociater and gentleMACS™ M Tubes. The protein in the mouse plasma samples was removed by protein precipitation with acetonitrile containing the internal standard. After protein precipitation the study samples were centrifuged, and the resulting supernatant was analyzed. The acetonitrile:DMSO from the brain sample homogenates were spiked with the internal standard and then analyzed. All samples were analyzed by first separating them by reversed phase gradient LC and subsequently detecting them using positive electrospray ionization and multiple reaction monitoring (MRM).
First, we performed a pharmacokinetic study of the behavior of the molecule in mice.

[3] = tested on: MYCN-amplified SK-N-DZ neuroblastoma xenograft; assay: SK-N-DZ neuroblastoma xenograft
Description: as §3, §4, §5

[4] = tested on: primary patient derived AML cell cultures and established AML/CML cell lines; assay: primary AML cells and AML/CML cell lines, WST-1 assay
Description: C) Primary AML cells from patient biopsies where cultured for 72 hours in presence of MYCMI-7 at indicated doses cell growth was monitored by the WST-1 assay. One representative biological experiment out of at three, performed in triplicates is shown.
Cell growth and viability assays: Cell growth and viability was estimated in triplicates with WST-1 (Roche) or Resazurin sodium salt (Sigma-Aldrich) assays in medium at 37° C. and 5% CO2 for 2 hours after which absorbance or fluorescence, respectively, was measured with an Omega Fluostar (BMG Labtech) in a 96 well plate format. Cell viability by the Cyt60 assay was carried out as in manufacturers' protocol.

[5] = 6.25 mg/kg intratumoral twice weekly
[6] = 6.25 mg/kg intratumoral twice a week

T3 sequence (P04198 whole entry): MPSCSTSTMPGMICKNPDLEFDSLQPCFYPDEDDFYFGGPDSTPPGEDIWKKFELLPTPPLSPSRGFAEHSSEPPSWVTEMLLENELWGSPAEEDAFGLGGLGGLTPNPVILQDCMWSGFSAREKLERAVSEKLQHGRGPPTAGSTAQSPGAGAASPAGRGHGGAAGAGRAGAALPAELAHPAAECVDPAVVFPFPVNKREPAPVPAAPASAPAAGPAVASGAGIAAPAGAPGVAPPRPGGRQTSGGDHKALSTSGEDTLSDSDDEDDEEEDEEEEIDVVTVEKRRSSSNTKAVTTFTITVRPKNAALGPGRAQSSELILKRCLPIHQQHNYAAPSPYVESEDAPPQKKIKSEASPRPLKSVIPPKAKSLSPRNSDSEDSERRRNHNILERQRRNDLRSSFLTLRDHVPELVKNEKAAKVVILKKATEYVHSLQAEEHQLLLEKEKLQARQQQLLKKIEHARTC
T1 sequence (P03069 253-274 limits assumed): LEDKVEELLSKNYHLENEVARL
T2 sequence (P15407 whole entry): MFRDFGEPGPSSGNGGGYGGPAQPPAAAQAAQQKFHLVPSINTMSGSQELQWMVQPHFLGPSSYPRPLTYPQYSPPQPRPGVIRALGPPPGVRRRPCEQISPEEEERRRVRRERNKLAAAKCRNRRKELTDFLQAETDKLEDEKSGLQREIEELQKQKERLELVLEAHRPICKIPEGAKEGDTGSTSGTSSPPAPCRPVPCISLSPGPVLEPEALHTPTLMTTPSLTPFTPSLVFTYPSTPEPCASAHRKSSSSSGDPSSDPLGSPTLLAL
T2 sequence (P05412 whole entry): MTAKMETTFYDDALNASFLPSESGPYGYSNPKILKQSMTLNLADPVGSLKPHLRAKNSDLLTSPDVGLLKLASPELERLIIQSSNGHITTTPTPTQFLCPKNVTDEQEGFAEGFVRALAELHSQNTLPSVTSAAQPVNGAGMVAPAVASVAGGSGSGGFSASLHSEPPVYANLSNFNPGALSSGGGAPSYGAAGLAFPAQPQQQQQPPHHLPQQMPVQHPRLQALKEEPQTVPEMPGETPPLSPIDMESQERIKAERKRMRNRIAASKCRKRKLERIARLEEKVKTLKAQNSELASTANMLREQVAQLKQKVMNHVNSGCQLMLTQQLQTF

CCN(CC)CC[n+]1ccc2c(C)c3[nH]c4ccccc4c3c(C)c2c1 [MYCMI-7, 2-(5,11-Dimethyl-6H-25-pyrido[4,3-b]carbazol-2-yl)-N,N-diethylethanamine bromide]
effect on homodimerization of GCN4 (GCN4:GCN4 GLuc) [1]: did not have any significant effect
inhibition of FRA1:JUN interaction (isPLA) (FRA1:JUN interaction): not
Expression of MYCN (MYCN): reduced
MYC expression (mRNA) (MYC mRNA; 5 μM): only minor effect
MYC mRNA expression (MYC mRNA; MCF7 cells, various time points): not due to reduced MYC mRNA expression
phosphorylation of ATM and p53 expression (DDR signaling) (phosphorylation of ATM): only a slight increase
survival [2, 5]: significantly increased survival
tumor growth [2, 5]: slowed down considerably
H&E staining of tumor areas ([2]; mouse, in vivo): extensive necrosis/apoptosis
MYC expression in tumors (IHC) ([2]; mouse, in vivo): reduced expression of MYC
TUNEL staining ([2]; mouse, in vivo): increased TUNEL staining
caspase 3 expression in tumors (IHC) ([2]; mouse, in vivo): increased caspase 3 expression
proliferation and microvascular density (Ki67, CD31) ([2]; mouse, in vivo): reduced proliferation and microvascular density
detection in the brain (pharmacokinetics in mice): could not be detected
survival [3, 6]: significantly increased survival
tumor growth [3, 6]: reduced tumor growth
H&E staining of tumor tissue ([3]; mouse, in vivo): massive apoptosis and/or necrosis as well as hemorrhage
MYCN expression in tumor cells (IHC) ([3]; mouse, in vivo): strong reduction in MYCN expression
efficiency compared with 10058-F4, JQ1 and cisplatin [4]: more efficient
GI50 ([4]; Homo sapiens): 150 to 1300 nM
